{
  "source": "paper PMC12259270",
  "about": "“Sensory neuron–expressed FGF13 controls nociceptive signaling in diabetic neuropathy models” (The Journal of Clinical Investigation, 2025)",
  "molecular_target": "T1, human Nav1.7 (Homo sapiens, UniProt Q15858)",
  "T1 construct": "expressed in transfected cells; host or cells: HEK293 stably expressing human Nav1.7",
  "T1 sequence (Q92913 1-192 partner limits assumed)": "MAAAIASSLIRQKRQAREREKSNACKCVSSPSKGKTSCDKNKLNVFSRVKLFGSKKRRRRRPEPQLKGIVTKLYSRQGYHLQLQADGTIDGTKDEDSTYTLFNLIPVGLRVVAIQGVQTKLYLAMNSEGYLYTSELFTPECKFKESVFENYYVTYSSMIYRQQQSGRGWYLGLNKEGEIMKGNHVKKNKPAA",
  "T1 sequence (Q15858 1-1977 isoform Q15858-3)": "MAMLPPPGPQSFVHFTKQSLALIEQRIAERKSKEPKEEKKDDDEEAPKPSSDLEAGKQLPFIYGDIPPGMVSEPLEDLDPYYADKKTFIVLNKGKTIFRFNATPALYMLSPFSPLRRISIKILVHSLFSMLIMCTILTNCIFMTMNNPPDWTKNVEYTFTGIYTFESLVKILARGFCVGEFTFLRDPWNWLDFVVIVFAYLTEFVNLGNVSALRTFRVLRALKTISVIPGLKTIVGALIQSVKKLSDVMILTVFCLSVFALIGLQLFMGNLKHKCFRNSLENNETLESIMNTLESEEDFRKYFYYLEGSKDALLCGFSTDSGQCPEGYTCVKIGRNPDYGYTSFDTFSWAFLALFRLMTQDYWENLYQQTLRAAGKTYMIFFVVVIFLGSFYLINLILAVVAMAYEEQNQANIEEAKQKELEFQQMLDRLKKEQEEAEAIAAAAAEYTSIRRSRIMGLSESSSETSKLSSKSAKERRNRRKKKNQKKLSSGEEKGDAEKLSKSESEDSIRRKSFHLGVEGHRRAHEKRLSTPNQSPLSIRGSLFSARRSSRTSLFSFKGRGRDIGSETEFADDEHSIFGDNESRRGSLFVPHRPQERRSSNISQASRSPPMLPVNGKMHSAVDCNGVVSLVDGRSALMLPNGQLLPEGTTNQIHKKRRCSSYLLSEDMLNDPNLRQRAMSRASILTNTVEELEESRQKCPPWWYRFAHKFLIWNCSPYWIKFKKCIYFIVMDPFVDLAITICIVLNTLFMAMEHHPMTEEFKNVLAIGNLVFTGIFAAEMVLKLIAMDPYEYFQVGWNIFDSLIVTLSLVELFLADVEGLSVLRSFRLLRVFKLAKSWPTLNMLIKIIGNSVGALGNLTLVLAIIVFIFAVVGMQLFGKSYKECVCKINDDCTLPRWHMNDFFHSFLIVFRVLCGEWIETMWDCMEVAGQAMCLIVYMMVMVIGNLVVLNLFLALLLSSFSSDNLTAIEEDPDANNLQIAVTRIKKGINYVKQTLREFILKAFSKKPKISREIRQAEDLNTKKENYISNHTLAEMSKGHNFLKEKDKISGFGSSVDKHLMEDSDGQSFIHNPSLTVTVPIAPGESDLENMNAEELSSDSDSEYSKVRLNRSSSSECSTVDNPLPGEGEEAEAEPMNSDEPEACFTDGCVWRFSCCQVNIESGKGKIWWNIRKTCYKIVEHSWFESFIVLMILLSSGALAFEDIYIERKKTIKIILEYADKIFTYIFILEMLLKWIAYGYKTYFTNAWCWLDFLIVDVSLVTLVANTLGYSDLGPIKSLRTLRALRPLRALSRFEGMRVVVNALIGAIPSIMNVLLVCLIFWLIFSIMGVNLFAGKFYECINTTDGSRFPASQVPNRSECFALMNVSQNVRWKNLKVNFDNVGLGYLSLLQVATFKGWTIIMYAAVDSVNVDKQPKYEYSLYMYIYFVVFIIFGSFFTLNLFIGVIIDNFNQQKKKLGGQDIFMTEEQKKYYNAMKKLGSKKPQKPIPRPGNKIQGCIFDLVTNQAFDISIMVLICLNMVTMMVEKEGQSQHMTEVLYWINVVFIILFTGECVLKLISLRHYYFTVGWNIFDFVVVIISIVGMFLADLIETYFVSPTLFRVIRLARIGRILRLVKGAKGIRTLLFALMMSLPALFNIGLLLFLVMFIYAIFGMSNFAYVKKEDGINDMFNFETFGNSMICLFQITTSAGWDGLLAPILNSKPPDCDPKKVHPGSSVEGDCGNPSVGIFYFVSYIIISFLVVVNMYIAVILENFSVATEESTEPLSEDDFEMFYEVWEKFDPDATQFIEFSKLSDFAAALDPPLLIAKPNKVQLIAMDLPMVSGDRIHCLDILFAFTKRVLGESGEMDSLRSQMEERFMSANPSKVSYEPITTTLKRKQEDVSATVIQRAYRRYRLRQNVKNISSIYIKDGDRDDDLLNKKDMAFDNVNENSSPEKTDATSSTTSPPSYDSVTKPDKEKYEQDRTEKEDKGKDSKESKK",
  "assay": "Whole-cell patch-clamp, HEK293 cells stably expressing human Nav1.7 with GFP or FGF13-GFP",
  "type": "cell-based",
  "conditions": "for Activation / LTI, 2nd Pulse / LTI, 3rd Pulse / LTI, 4th Pulse / Peak Density / Steady-State inactivation / Tau (τ): HEK293 Nav1.7; for Figure 4G, Mean per step (normalized) / Figure 4H, Mean per step (step 1 = 100): N 10",
  "description": "Whole-cell patch clamp electrophysiology\nHEK293-Nav1.7 cells, HEK293 stably expressing human Nav1.6 (HEK-Nav1.6), HEK293 stably expressing human Nav1.5 (HEK-Nav1.5), human hIPSC-derived sensory neurons (RealDRGTM from Anatomic Incorporated 1020F1-1M) and donor-derived DRG neurons were plated at low density on glass coverslips and processed for whole-cell patch clamp electrophysiology in voltage-clamp and/or current clamp mode. Whole-cell patch electrophysiological experiments were conducted following previously published studies (26). Current densities were obtained by dividing INa amplitude by membrane capacitance. Current –voltage relationships were generated by plotting current density as a function of the […]. Conductance (G Na) was calculated by the […]\nwhere INa is the current amplitude at voltage Vm, and Erev is the Na+ reversal potential.\nActivation curves were derived by plotting normalized GNa as a function of test potential and fitted using […]\nWhere GNa,Max is the maximum conductance, Va is the membrane potential of half-maximal activation, Em is the membrane voltage and k is the slope factor. For steady -state inactivation, normalized current amplitude (INa/INa,Max) at the test potential was plotted as a function of prepulse potential (Vm) and fitted using the […]\nWhere Vh is the potential of half-maximal inactivation, E m is the membrane voltage, and k is the slope factor.\nTransient INa inactivation decay was estimated with the standard exponential equation. Inactivation time constant (tau, τ) was fitted with the following equation: […]\nwhere I(t) is the amplitude of the current at time t and Iss is the steady-state current during a single voltage-step.\nThe goodness of fitting was determined by correlation coefficient (R), and the cutoff of R was set at 0.85. To observe effects on long-term inactivation (LTI), a four-step protocol was employed during which cells were subjected to four 0 mV, 20 ms depolarization pulses separated by −90 mV, 40 ms recovery intervals. To control for various cell sizes, the current densities were calculated by dividing INa peak current amplitude/membrane capacitance (Cm). To represent the fraction of channels entering into LTI, the peak INa observed during depolarization cycles 2-4 was normalized to the peak INa observed during depolarization cycle 1 (INa/INa,Cycle 1) and plotted as a function of the depolarization cycle.\nThe cumulative (frequency-dependent) use-dependency was determined by applying 20 pulses with a depolarization to −10 mV (50 ms duration) and 50 ms recovery intervals with a train of 20 pulses at 10 Hz from a holding potential at -70 mV. The current pulses were normalized to the first reco rded pulse and the currents at the 2nd to 20th pulses were compared. The same train was used to record use-dependency at various frequencies […]\nThe rate of recovery from inactivation was recorded at -80 mV with a standard repriming voltage protocol.\nThe cells were prepulsed to -20 mV for 20 ms to inactivate all currents, then driven back to the recovery potential (Vrec) for increasing recovery durations before the test pulse to 0 mV. The maximum pulse rate was 0.5 Hz. The […]\nfollows previous publications (16). The time constants were estimated from single exponential decay to time courses measured at recovery potentials ranging from -140 to -60 mV with the protocol as mentioned above.\nElectrophysiological Recordings\nHEK293 cells: Electrophysiological recordings in HEK293 stably expressing Nav1.7 (HEK-Nav1.7), Nav1.5 (HEK-Nav1.5) or Nav1.6 (HEK-Nav1.6) were performed at room temperature using a MultiClamp 700B or an Axopatch 200B amplifier (Molecular Devices) after incubating coverslips for 60 minutes either with 0.1% DMSO or 50 μM PW164 or ZL192 in the extracellular solution. The composition of recording solutions consisted of the […]\nfollowing salts: extracellular (mM): 140 NaCl, 3 KCl, 1 MgCl2, 1 CaCl2, 10 HEPES, 10 glucose, pH 7.3; […]\nintracellular (mM): 130 CH3O3 SCs, 1 EGTA, 10 NaCl, 10 HEPES, pH 7.3. […]",
  "note": "Values joined by “and” are separate entries in the source; they are usually repeats but may differ in a detail not shown here. Identical values can stand only once. Residues, ends and D or L forms follow the SMILES beside them. *: point of attachment. NHPh = c1ccc(N*)cc1",
  "data": [
    {"compound": "CC(=O)N[C@@H](Cc1ccccc1)C(=O)N[C@@H](CC(C)C)C(=O)N1CCC[C@H]1C(=O)N[C@@H](CCCCN)C(=O)Nc1ccccc1", "note": "[ZL192] (Ac-FLPK-NHPh)", "values": [
      {"measurement": "Activation", "setting": "FGF13-GFP + ZL192 50 μM", "result": "−26.0 ± 0.8", "unit": "mV"},
      {"measurement": "LTI, 2nd Pulse", "setting": "FGF13-GFP + ZL192 50 μM", "result": "−69.72 ± 5.21", "unit": "% maximal Na+ current"},
      {"measurement": "LTI, 3rd Pulse", "setting": "FGF13-GFP + ZL192 50 μM", "result": "−60.33 ± 5.60", "unit": "% maximal Na+ current"},
      {"measurement": "LTI, 4th Pulse", "setting": "FGF13-GFP + ZL192 50 μM", "result": "−59.34 ± 4.68", "unit": "% maximal Na+ current"},
      {"measurement": "Peak Density", "setting": "FGF13-GFP + ZL192 50 μM", "result": "−139.7 ± 12.3", "unit": "pA/pF"},
      {"measurement": "Steady-State inactivation", "setting": "FGF13-GFP + ZL192 50 μM", "result": "−66.7 ± 2.6", "unit": "mV"},
      {"measurement": "Tau (τ)", "setting": "FGF13-GFP + ZL192 50 μM", "result": "1.2 ± 0.06", "unit": "ms"},
      {"measurement": "Activation", "setting": "GFP + ZL192 50 μM", "result": "−25.7 ± 0.8", "unit": "mV"},
      {"measurement": "LTI, 2nd Pulse", "setting": "GFP + ZL192 50 μM", "result": "−67.94 ± 3.77", "unit": "% maximal Na+ current"},
      {"measurement": "LTI, 3rd Pulse", "setting": "GFP + ZL192 50 μM", "result": "−62.35 ± 57.35", "unit": "% maximal Na+ current"},
      {"measurement": "LTI, 4th Pulse", "setting": "GFP + ZL192 50 μM", "result": "−60.93 ± 3.90", "unit": "% maximal Na+ current"},
      {"measurement": "Peak Density", "setting": "GFP + ZL192 50 μM", "result": "−73.5 ± 8.1", "unit": "pA/pF"},
      {"measurement": "Steady-State inactivation", "setting": "GFP + ZL192 50 μM", "result": "−82.8 ± 1.1", "unit": "mV"},
      {"measurement": "Tau (τ)", "setting": "GFP + ZL192 50 μM", "result": "1.3 ± 0.1", "unit": "ms"},
      {"measurement": "EC50", "setting": "HEK-Nav1.7 coexpressing FGF13, Fig 4D, read-out: EC50, potentiation of INa", "result": "8.5 ± 0.9", "unit": "µM"},
      {"measurement": "Current density pA/pF (Figure 4D), individual cells", "setting": "Nav1.7 + FGF13-GFP", "result": "-168.188 pA/pF and -158.115 pA/pF and -119.568 pA/pF and -127.538 pA/pF and -145.958 pA/pF and -170.525 pA/pF and -75.8621 pA/pF and -128.86 pA/pF and -208.183 pA/pF and -94.6899 pA/pF"},
      {"measurement": "pA/pF Dose response (Figure 4D), individual cells", "setting": "Nav1.7 + FGF13-GFP, Log (conc(M) -4)", "result": "-162.222 pA/pF and -131.216 pA/pF and -115.311 pA/pF and -179.051 pA/pF and -125.271 pA/pF and -135.274 pA/pF"},
      {"measurement": "pA/pF Dose response (Figure 4D), individual cells", "setting": "Nav1.7 + FGF13-GFP, Log (conc(M) -4.12)", "result": "-133.535 pA/pF and -142.569 pA/pF and -148.889 pA/pF"},
      {"measurement": "pA/pF Dose response (Figure 4D), individual cells", "setting": "Nav1.7 + FGF13-GFP, Log (conc(M) -4.22)", "result": "-94.6899 pA/pF and -168.188 pA/pF and -158.115 pA/pF and -119.568 pA/pF and -127.538 pA/pF and -145.958 pA/pF and -170.525 pA/pF and -75.8621 pA/pF and -128.86 pA/pF and -208.183 pA/pF"},
      {"measurement": "pA/pF Dose response (Figure 4D), individual cells", "setting": "Nav1.7 + FGF13-GFP, Log (conc(M) -4.6)", "result": "-142.47 pA/pF and -131.114 pA/pF and -147.185 pA/pF and -132.461 pA/pF and -139.907 pA/pF and -150.76 pA/pF and -140.066 pA/pF"},
      {"measurement": "pA/pF Dose response (Figure 4D), individual cells", "setting": "Nav1.7 + FGF13-GFP, Log (conc(M) -4.82)", "result": "-154.895 pA/pF and -103.016 pA/pF and -135.94 pA/pF and -128.008 pA/pF and -135.582 pA/pF and -110.637 pA/pF and -137.656 pA/pF (2×)"},
      {"measurement": "pA/pF Dose response (Figure 4D), individual cells", "setting": "Nav1.7 + FGF13-GFP, Log (conc(M) -5)", "result": "-99.4552 pA/pF and -132.222 pA/pF and -121.216 pA/pF and -111.311 pA/pF and -169.051 pA/pF and -139.271 pA/pF and -105.274 pA/pF"},
      {"measurement": "pA/pF Dose response (Figure 4D), individual cells", "setting": "Nav1.7 + FGF13-GFP, Log (conc(M) -5.5)", "result": "-112.13 pA/pF and -130.035 pA/pF and -105.009 pA/pF and -123.737 pA/pF and -114.192 pA/pF and -90.2752 pA/pF and -117.316 pA/pF"},
      {"measurement": "pA/pF Dose response (Figure 4D), individual cells", "setting": "Nav1.7 + FGF13-GFP, Log (conc(M) -6)", "result": "-149.506 pA/pF and -142.879 pA/pF and -66.945 pA/pF and -161.516 pA/pF and -59.6444 pA/pF and -67.5751 pA/pF and -70.501 pA/pF and -91.4611 pA/pF and -141.024 pA/pF and -68.796 pA/pF and -57.939 pA/pF"},
      {"measurement": "Figure 4G, Mean per step (normalized)", "setting": "Nav1.7 + FGF13-GFP, Steps 1", "result": 1},
      {"measurement": "Figure 4H, Mean per step (step 1 = 100)", "setting": "Nav1.7 + FGF13-GFP, Steps 1", "result": 100},
      {"measurement": "Figure 4H, Mean per step (step 1 = 100)", "setting": "Nav1.7 + FGF13-GFP, Steps 2", "result": 69.7172},
      {"measurement": "Figure 4G, Mean per step (normalized)", "setting": "Nav1.7 + FGF13-GFP, Steps 3", "result": 0.9185},
      {"measurement": "Figure 4H, Mean per step (step 1 = 100)", "setting": "Nav1.7 + FGF13-GFP, Steps 3", "result": 60.3376},
      {"measurement": "Figure 4H, Mean per step (step 1 = 100)", "setting": "Nav1.7 + FGF13-GFP, Steps 4", "result": 59.3427},
      {"measurement": "Figure 4G, Mean per step (normalized)", "setting": "Nav1.7 + FGF13-GFP, Steps 5", "result": 0.9162},
      {"measurement": "Figure 4G, Mean per step (normalized)", "setting": "Nav1.7 + FGF13-GFP, Steps 10", "result": 0.8818},
      {"measurement": "Figure 4G, Mean per step (normalized)", "setting": "Nav1.7 + FGF13-GFP, Steps 15", "result": 0.8857}
    ]}
  ]
}
